Laboratory results as given in PubChem BioAssay AID330 (DTP/NCI, 2004).
Values joined by “and” are separate entries in the source; they are usually repeats but may differ in a detail not shown here. Identical values can stand only once. Inconclusive results and toxic doses are left out. How the source made its calls: active means survival T/C of 150% or more; inactive means T/C below 125% in these data. Peptide text beside a SMILES is read from it. * marks the point of attachment. Cbz = O=C(OCc1ccccc1)*; Bn = c1ccc(C*)cc1

System: P388 leukemia ip, CD2F1 mice, survival T/C
Experiment: NCI In Vivo Anticancer Drug Screen. Data for tumor model P388 Leukemia (intraperitoneal) in CD2F1 (CDF1) mice
Conditions: endpoint: median survival time, higher = longer survival
In short: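 Mice carrying the transplanted tumor received test compound or vehicle. Survival was recorded in each group, and the value is the treated-group measurement divided by that of the vehicle-treated control group.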

[1] = dose: 25.0 mg/kg/injection, schedule: Q01DX009 (ip), vehicle: saline
[2] = dose: 50.0 mg/kg/injection, schedule: Q01DX009 (ip), vehicle: saline
[3] = dose: 100.0 mg/kg/injection, schedule: Q01DX009 (ip), vehicle: saline
[4] = dose: 200.0 mg/kg/injection, schedule: Q01DX009 (ip), vehicle: saline
[5] = dose: 25.0 mg/kg/injection, schedule: Q01DX009 (ip), vehicle: Klucel (hydroxypropylcellulose) (HPC)
[6] = dose: 50.0 mg/kg/injection, schedule: Q01DX005 (ip), vehicle: saline with Tween-80
[7] = dose: 100.0 mg/kg/injection, schedule: Q01DX005 (ip), vehicle: saline with Tween-80
[8] = dose: 200.0 mg/kg/injection, schedule: Q01DX005 (ip), vehicle: saline with Tween-80
[9] = dose: 50.0 mg/kg/injection, schedule: Q01DX009 (ip), vehicle: Klucel (hydroxypropylcellulose) (HPC)
[10] = dose: 100.0 mg/kg/injection, schedule: Q01DX009 (ip), vehicle: Klucel (hydroxypropylcellulose) (HPC)
[11] = dose: 100.0 mg/kg/injection, schedule: Q01DX001 (ip), vehicle: Klucel (hydroxypropylcellulose) (HPC)
[12] = dose: 200.0 mg/kg/injection, schedule: Q01DX001 (ip), vehicle: Klucel (hydroxypropylcellulose) (HPC)
[13] = dose: 400.0 mg/kg/injection, schedule: Q01DX001 (ip), vehicle: Klucel (hydroxypropylcellulose) (HPC)
[14] = dose: 50.0 mg/kg/injection, schedule: Q01DX005 (ip), vehicle: Klucel (hydroxypropylcellulose) (HPC)
[15] = dose: 60.0 mg/kg/injection, schedule: Q01DX005 (ip), vehicle: saline with Tween-80
[16] = dose: 120.0 mg/kg/injection, schedule: Q01DX005 (ip), vehicle: saline with Tween-80
[17] = dose: 60.0 mg/kg/injection, schedule: Q01DX005 (ip), vehicle: saline
[18] = dose: 12.5 mg/kg/injection, schedule: Q01DX005 (ip), vehicle: Klucel (hydroxypropylcellulose) (HPC)
[19] = dose: 25.0 mg/kg/injection, schedule: Q01DX005 (ip), vehicle: Klucel (hydroxypropylcellulose) (HPC)
[20] = dose: 200.0 mg/kg/injection, schedule: Q01DX009 (ip), vehicle: Klucel (hydroxypropylcellulose) (HPC)

Measured: T/C

O=C(O)C(O)C(Cl)(Cl)Cl (stereo unspecified)
inactive: [1] 107 % of control | [2] 96 % of control | [3] 88 % of control | [4] 91 % of control

[I][Hg][CH]1CCC2CCCC1O2 (stereo unspecified)
inactive: dose: 12.5 mg/kg/injection, schedule: Q01DX009 (ip), vehicle: Klucel (hydroxypropylcellulose) (HPC) 105 % of control | [5] 102 % of control

CC1=C(C)CN2CC(C#N)=C(N)C2C1 (stereo unspecified)
inactive: [6] 107 % of control | [7] 96 % of control | [8] 96 % of control

CC(=O)NC(CCO)C(N)=O (stereo unspecified)
inactive: dose: 12.5 mg/kg/injection, schedule: Q01DX009 (ip), vehicle: water 99 % of control and 100 % of control | dose: 25.0 mg/kg/injection, schedule: Q01DX009 (ip), vehicle: water 106 % of control | dose: 50.0 mg/kg/injection, schedule: Q01DX009 (ip), vehicle: water 107 % of control and 120 % of control | dose: 100.0 mg/kg/injection, schedule: Q01DX009 (ip), vehicle: water 111 % of control and 94 % of control | dose: 200.0 mg/kg/injection, schedule: Q01DX009 (ip), vehicle: water 100 % of control and 101 % of control

O=Cc1ccc(NCCCN2CCN(CCCNc3ccc(C=O)c4sc5ccccc5c(=O)c34)CC2)c2c(=O)c3ccccc3sc12
inactive: dose: 1.56 mg/kg/injection, schedule: Q01DX005 (ip), vehicle: saline with Tween-80 107 % of control | dose: 3.13 mg/kg/injection, schedule: Q01DX005 (ip), vehicle: saline with Tween-80 101 % of control | dose: 6.25 mg/kg/injection, schedule: Q01DX005 (ip), vehicle: saline with Tween-80 95 % of control | dose: 12.5 mg/kg/injection, schedule: Q01DX005 (ip), vehicle: saline with Tween-80 99 % of control | [6] 88 % of control

O=C1c2ccccc2CCC12OC2c1ccncc1 (stereo unspecified)
inactive: [5] 107 % of control | [9] 110 % of control | [10] 100 % of control

CNC(=O)OCCC(OC(=O)NC)C1CCC2C3CC=C4CC(OC(C)=O)CCC4(C)C3CCC12C (stereo unspecified)
inactive: [11] 103 % of control | [12] 104 % of control | [13] 110 % of control

O=C(Nc1ccccc1)/C(N=Nc1ccccc1Cl)=N\Nc1cc(S(=O)(=O)O)ccc1Cl
inactive: [14] 103 % of control | dose: 100.0 mg/kg/injection, schedule: Q01DX005 (ip), vehicle: Klucel (hydroxypropylcellulose) (HPC) 102 % of control | dose: 200.0 mg/kg/injection, schedule: Q01DX005 (ip), vehicle: Klucel (hydroxypropylcellulose) (HPC) 107 % of control

Cc1cc2nc3c(nc2cc1C)CCCCCC3
inactive: dose: 85.5 mg/kg/injection, schedule: Q01DX001 (ip), vehicle: Klucel (hydroxypropylcellulose) (HPC) 92 % of control | dose: 171.0 mg/kg/injection, schedule: Q01DX001 (ip), vehicle: Klucel (hydroxypropylcellulose) (HPC) 90 % of control | dose: 342.0 mg/kg/injection, schedule: Q01DX001 (ip), vehicle: Klucel (hydroxypropylcellulose) (HPC) 90 % of control

Nc1ccc2c(c1)CCCC2=O
inactive: [15] 102 % of control | [16] 93 % of control | dose: 240.0 mg/kg/injection, schedule: Q01DX005 (ip), vehicle: saline with Tween-80 107 % of control

CC(=O)OC1C(c2ccc(Cl)cc2)CC2CCC1N2C (stereo unspecified)
inactive: [6] 103 % of control | [7] 102 % of control

CNC1=CC(=S)NC(C)(C)C1
inactive: [2] 100 % of control | [3] 92 % of control | [4] 92 % of control

[I][Pt+2][I].[NH-]C(c1ccccc1)C([NH-])c1ccccc1 (stereo unspecified)
inactive: dose: 12.5 mg/kg/injection, schedule: Q04DX002 (ip), vehicle: saline with Tween-80 102 % of control | dose: 25.0 mg/kg/injection, schedule: Q04DX002 (ip), vehicle: saline with Tween-80 109 % of control and 111 % of control | dose: 50.0 mg/kg/injection, schedule: Q04DX002 (ip), vehicle: saline with Tween-80 115 % of control

CC1(C)CC(=O)C(CC2=C(N)CC(C)(C)CC2=O)=C(N)C1
inactive: dose: 25.0 mg/kg/injection, schedule: Q04DX003 (ip), vehicle: Klucel (hydroxypropylcellulose) (HPC) 95 % of control | dose: 50.0 mg/kg/injection, schedule: Q04DX003 (ip), vehicle: Klucel (hydroxypropylcellulose) (HPC) 101 % of control | dose: 100.0 mg/kg/injection, schedule: Q04DX003 (ip), vehicle: Klucel (hydroxypropylcellulose) (HPC) 94 % of control | dose: 200.0 mg/kg/injection, schedule: Q04DX003 (ip), vehicle: Klucel (hydroxypropylcellulose) (HPC) 95 % of control

CC(CN(C)C)C(/C=C/c1ccccc1)=N\Nc1ccccc1 (stereo unspecified)
inactive: dose: 15.0 mg/kg/injection, schedule: Q01DX005 (ip), vehicle: saline 98 % of control | dose: 30.0 mg/kg/injection, schedule: Q01DX005 (ip), vehicle: saline 103 % of control | [17] 99 % of control and 107 % of control

c1ccc2c3c([nH]c2c1)C1CC2CCCCC2CN1CC3 (stereo unspecified)
inactive: [15] 94 % of control | [16] 111 % of control

Cc1oc(-c2ccc(F)cc2)nc1C(N)=O
inactive: [11] 97 % of control | [12] 94 % of control | [13] 101 % of control

CCCCCCCC(=O)C1C(=O)OC(C)(C)OC1=O
inactive: [15] 100 % of control | [16] 100 % of control

CC1C2CCC3C4CC=C5CC(N(C)C)CCC5(C)C4CCC32CN1C (stereo unspecified)
inactive: [18] 105 % of control | dose: 12.5 mg/kg/injection, schedule: Q01DX005 (ip), vehicle: saline 94 % of control | [19] 105 % of control | dose: 25.0 mg/kg/injection, schedule: Q01DX005 (ip), vehicle: saline 94 % of control | [1] 105 % of control | [14] 103 % of control and 113 % of control | dose: 50.0 mg/kg/injection, schedule: Q01DX005 (ip), vehicle: saline 106 % of control and 107 % of control | [2] 88 % of control

CC(C)CC(NC(=O)C(CSCc1ccccc1)NC(=O)OCc1ccccc1)C(N)=O (stereo unspecified) (Cbz-Cys(Bn)-Leu-NH2; configuration not given here)
inactive: dose: 6.25 mg/kg/injection, schedule: Q01DX005 (ip), vehicle: Klucel (hydroxypropylcellulose) (HPC) 102 % of control | [18] 86 % of control | [19] 86 % of control

c1ccc2cc(-c3cc(-c4cc(-c5ccc6ccccc6c5)on4)no3)ccc2c1
inactive: dose: 60.0 mg/kg/injection, schedule: Q01DX005 (ip), vehicle: Klucel + Tween-80 100 % of control | dose: 120.0 mg/kg/injection, schedule: Q01DX005 (ip), vehicle: Klucel + Tween-80 95 % of control | dose: 240.0 mg/kg/injection, schedule: Q01DX005 (ip), vehicle: Klucel + Tween-80 91 % of control

CN(C)c1ccc(C(=O)Cc2ccc3ccccc3n2)cc1
inactive: [9] 92 % of control | [10] 89 % of control | [20] 102 % of control

CCCc1c(-c2ccccc2)nc(N)nc1-c1nc(N)nc(-c2ccccc2)c1CCC
inactive: [17] 100 % of control | dose: 120.0 mg/kg/injection, schedule: Q01DX005 (ip), vehicle: saline 95 % of control

N#CC1=C(N)Oc2c(c(-c3ccccc3)nn2-c2ccccc2)C1c1ccccc1 (stereo unspecified)
inactive: [9] 100 % of control | [10] 105 % of control | [20] 100 % of control

Cc1ccc(C(=S)N=P(c2ccccc2)(c2ccccc2)c2ccccc2)cc1
inactive: [6] 99 % of control | [7] 107 % of control | [8] 100 % of control
